Measured values: patent US8592590B2, “Tetrahydrotriazolopyridine compounds as selective MGLU5 receptor potentiators useful for the treatment of schizophrenia” (Eli Lilly and Company, priority 2009, dated 2013)

Assays:
[1] = biological target: T1, human mGlu5 receptor (Homo sapiens, UniProt P41594); assay: Functional in vitro activity at human mGlu5 receptor (FLIPR calcium, potentiator mode); format: cell-based; settings: AV-12 cells expressing human mGlu5, glutamate EC10, relative EC50
T1 construct: expressed in transfected cells
T1 sequence (P41594 21-1212): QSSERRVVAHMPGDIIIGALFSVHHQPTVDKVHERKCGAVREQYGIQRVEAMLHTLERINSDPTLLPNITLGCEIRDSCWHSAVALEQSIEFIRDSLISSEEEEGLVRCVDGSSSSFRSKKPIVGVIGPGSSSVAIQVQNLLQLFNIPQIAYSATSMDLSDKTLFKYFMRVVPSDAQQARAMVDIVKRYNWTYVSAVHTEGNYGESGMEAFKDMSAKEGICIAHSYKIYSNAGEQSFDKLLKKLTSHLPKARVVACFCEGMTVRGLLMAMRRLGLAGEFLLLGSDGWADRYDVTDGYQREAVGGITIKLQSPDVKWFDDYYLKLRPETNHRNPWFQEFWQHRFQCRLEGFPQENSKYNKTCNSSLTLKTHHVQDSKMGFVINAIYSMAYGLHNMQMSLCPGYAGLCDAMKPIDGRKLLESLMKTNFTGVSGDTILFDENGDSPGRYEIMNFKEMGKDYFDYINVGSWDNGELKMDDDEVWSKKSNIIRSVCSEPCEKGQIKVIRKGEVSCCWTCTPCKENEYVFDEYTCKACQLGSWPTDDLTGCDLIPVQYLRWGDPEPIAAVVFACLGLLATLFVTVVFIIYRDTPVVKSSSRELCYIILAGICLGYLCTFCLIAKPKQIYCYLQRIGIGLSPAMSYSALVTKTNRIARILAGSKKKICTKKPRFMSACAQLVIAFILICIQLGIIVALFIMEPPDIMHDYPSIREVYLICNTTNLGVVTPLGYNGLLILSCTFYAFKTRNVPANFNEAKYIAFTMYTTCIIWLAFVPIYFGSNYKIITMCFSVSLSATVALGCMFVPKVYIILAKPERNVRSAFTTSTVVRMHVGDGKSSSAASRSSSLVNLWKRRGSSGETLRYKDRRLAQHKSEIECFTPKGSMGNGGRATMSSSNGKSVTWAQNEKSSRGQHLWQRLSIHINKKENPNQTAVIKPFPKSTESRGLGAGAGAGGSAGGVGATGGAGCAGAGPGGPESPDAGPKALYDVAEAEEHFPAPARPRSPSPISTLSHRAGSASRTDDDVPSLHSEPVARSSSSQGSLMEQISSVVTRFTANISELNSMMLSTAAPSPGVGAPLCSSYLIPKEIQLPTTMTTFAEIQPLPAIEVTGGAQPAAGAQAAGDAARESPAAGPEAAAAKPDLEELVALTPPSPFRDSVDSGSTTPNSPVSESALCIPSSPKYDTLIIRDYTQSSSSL
Method: An AV-12 cell line stably expressing the human mGlu5 receptor and co-transfected with the rat glutamate transporter EAAT 1 (Excitatory Amino Acid Transporter 1) are used for these studies (see for example Desai, Burnett, Mayne, Schoepp, Mol. Pharmacol. 48, 648-657, 1995). The cell line is maintained by culturing in Dulbecco's Modified Eagle's Medium (DMEM) with high glucose and pyridoxine hydrochloride supplemented with 5% heat inactivated, dialyzed fetal bovine serum, 1 mM sodium pyruvate, 10 mM HEPES (4-(2-hydroxyethyl)-1-piperazineethanesulfonic acid), 1 mM of L-glutamine, 0.75 mg/ml geneticin and 0.3 mg/ml hygromycin. Sub-confluent cultures are passaged twice per week using 0.25% trypsin-EDTA. […]
Intracellular calcium levels are monitored before and after the addition of compounds using a Fluorometric Imaging Plate Reader (FLIPR, Molecular Devices, Union City, Calif. USA). […] The results are analyzed using (GraphPad® Prism v4, Graphpad Software, LaJolla, Calif., USA) to calculate the concentrations of glutamate needed to induce the EC10 responses.
Compounds are tested in a two-addition FLIPR assay using a 10-point concentration response profile starting at a final concentration of 25 μM (agonist mode) or 12.5 μM (potentiator mode). […] After taking an initial 5-sec fluorescent read on the FLIPR instrument, compound is added to the cell plate (50 ul per well). […]

[2] = tested on: Male Lister hooded rats; assay: Delayed matching to position task (DMTP) in rats, deficit induced by NMDA antagonist SDZ 220,581; format: in vivo, rat
Text: The delayed matching to position task (DMTP) has been used to study working memory in rats. Working memory in this context is the retention and use of information that is available only during an individual trial. The study of compounds which modulate NMDA receptors in DMTP has been used to identify the importance of NMDA receptors in learning and memory. More specifically, studies have shown competitive NMDA antagonists to induce impairment of DMTP in rats. Compounds which show a positive effect in attenuating deficits induced by competitive NMDA antagonists in rats are believed to be useful in treating cognitive disorders in humans.
Male Lister hooded rats are housed in groups of 4 and are maintained on a food-restricted diet and a 12-hour light dark cycle. The experiments are conducted during the same part of the light phase each day.
Standard operant chambers, housed in sound and light attenuating chambers are used. Each chamber comprised a house light, two retractable levers, each with a stimulus light above it. The levers are located either side of a recessed magazine where food pellets are delivered from an automatic pellet dispenser. Start of a session is signaled by onset of the house light, and its permanent offset indicated the end of a session. Experimental sessions are controlled and data is recorded and analyzed.
Sample Phase. A trial begins with a one of the levers extending into the chamber. The stimulus light above the lever is illuminated. If the lever is pressed, it is retracted and the stimulus light extinguished. This initiates the pseudo-randomly selected delay period of 1, 2, 4, 8 or 16 seconds during training or 1, 12, or 32 seconds during test.
Head Entry. After this delay period is complete, animals are required to make a head entry into the food hopper within 10 seconds, if an appropriate response is made both levers are extended into the chamber. If no response is made during this period, the house-light is extinguished and the trial counted as an omission.
Choice Phase. If animals make the appropriate head entry response and the levers extended into the operant chamber, they have 10 seconds which to make their response. A correct response consists of an animal pressing the same lever that is extended into the chamber during the sample phase. This response results in both levers retracting and a single food pellet being delivered into the food hopper. After a 5 second inter-trial interval the next trial begins. Following an incorrect response, (the animal pressing the opposite lever as had been extended during the sample phase), both levers retract and the house-light is extinguished signaling the end of that trial. After a 5 second time out the next trial begins, signaled by onset of the house-light. If the animal fails to respond within 10 second during the choice phase, the levers retract, the house-light extinguishes and the trial is recorded as an omission.
Overall Session. Each session is terminated after 75 trials (15 pseudo-random presentations of each delay period). Animals are trained to a criterion of greater than 70% accuracy over the entire session with less than 10% omissions of responding. After criterion is reached, rats are trained two times a week in a baseline condition and once a week in a test condition.
Test Compounds. A compound of the present invention stock of 1.0 mg/ml is prepared. For example, 18.7 mg of the compound of Example 11 is weighed and suspended in 18.7 ml vehicle (1% high viscocity cmc, 0.25% tween, 0.05% antifoam). A white suspension is formed. Test compound is administered orally, 60 minutes prior to the start of a session, in a volume of 1 ml/kg.
NMDA antagonist stock, 2.0 mg/ml: […] of SDZ 220,581 is weighed and dissolved in 16.73 ml vehicle (0.09 ml 1M NaOH, made up to volume with 5% glucose). A solution is formed and at a pH 6.5 at time of injection. SDZ 220,581 is administered subcutaneously, 30 minutes prior to the start of a session, in a volume of 1 ml/kg. […]

[3] = Example 11/V: Example 11 1 mg/kg orally 60 min prior, vehicle instead of SDZ

Row | Compound | EC50 [1] [µM] | Trials Completed ([2]; Example 11/SDZ: Example 11 1 mg/kg orally 60 min prior plus SDZ 220,581 subcutaneously 30 min prior) | % Accuracy [2, 3] [%] | % Omissions [2, 3] [%] | Average Correct latency [2, 3] [s] | Average Incorrect latency [2, 3] [s] | Head Entries [2, 3] | Sample latency [2, 3] [s] | Trials Completed [2, 3] | deficits induced by SDZ-220,581 in the delayed matching to position assay of working memory ([2]; concurrent treatment with 1 mg/kg Example 11)
1 | CC(C)(C)c1nnc2n1CCC(c1nc(-c3ccc(F)cc3)no1)C2 (racemic) [Example 1, 3-tert-butyl-7-[3-(4-fluorophenyl)-1,2,4-oxadiazol-5-yl]-5,6,7,8-tetrahydro[1,2,4]triazolo[4,3-a]pyridine] | 0.12 ± 0.047 |  |  |  |  |  |  |  |  | 
2 | CC(C)(C)c1nnc2n1CC[C@H](c1nc(-c3ccc(F)cc3)no1)C2 (single isomer, unassigned) [Example 11] | 0.036 ± 0.0035 | 72 ± 2 | 75.6 ± 1.6 | 1.2 ± 0.4 | 0.94 ± 0.05 | 0.98 ± 0.08 | 2092 ± 83 | 1.84 ± 0.22 | 75 ± 0 | attenuated all deficits
